The values that follow come from patent EP0002836A1, “Acylhydrocarbylaminoalcanecarboxylic acids, their preparation and their use, and pharmaceutical compositions containing them” (Byk Gulden Lomberg Chemische Fabrik GmbH, priority 1977, dated 1979).

For data set [1], the system named is CCl4-lebergeschädigte Ratten. Briefly: Antihepatotoxic effect: hexobarbital sleeping time of rats after CCl4 liver damage. The settings on record: for TQ [LD50/ED50]: LD50 (Maus i.p.) / ED50 antihepatotoxischer Effekt (Ratte, p.o.), for Lfd.Nr. 1 the cited p.o. LD50; for ED50: Rattus norvegicus, po, Ratte, p.o., dose that shortens hexobarbital narcosis of CCl4-liver-damaged rats by 50 %, sodium salts in aqueous solution, given 1 h before CCl4, read-out: Antihepatotoxischer Effekt ED50. Format: in vivo, Ratte. From the text:
In Tabelle III werden Untersuchungen der antihepatotoxischen Wirkung (ED50) erfindungsgemäßer Verbindungen nach oraler Applikation an wachen Ratten und die letale Wirkung nach intraperitonealer Applikation an der Maus (LD50) sowie der therapeutische Quotient (TQ = LD50/ED50) wiedergegeben.
Prüfung auf antihepatotoxische Wirkung
Einfluß auf die Hexobarbitalschlafdauer der Ratte nach CCl4-Leberschädi- gung
Versuchsdurchführung: • In Anlehnung an VOGEL et al. [Arzneim.Forsch. 25(1975)82] wird bei nüchternen weiblichen Sprague-Dawley-Ratten (190 *10 g Körpergewicht, 10 Tiere/Dosis pro Versuchsansatz) durch orale Verabreichung von Tetrachlorkohlenstoff ([…] CC14 in 2,5 ml/kg Olivenöl) ein Leberzellenschaden erzeugt, dessen Ausmaß an der Verlängerung der Hexobarbitalnatrium-Schlafdauer (50mg/ml/kg i.v.;Schwanzvene, Injektionsdauer 45 - 60 sec.) 47 Stunden nach der CC14-Gabe bestimmt wird. Die zu prüfenden Verbindungen werden eine Stunde vor der CC14-Gabe oral in einem Flüssigkeitsvolumen von 10 ml/kg verabreicht.
Auswertung: • Der antihepatotoxische Effekt der zu prüfenden Verbindungen (NatriumSalze in wäßriger Lösung) wird an der prozentualen Verkürzung der durch die CC14-Leberzellschädigung bedingten Schlafdauerverlängerung bei den behandelten Gruppen gegenüber der Schlafdauerverlängerung der CC14-Kontrollgruppe (= 100 %) gemessen. Die ED50 wurde durch Interpolation aus der Dosis-Wirkungskurve ermittelt.

The subject of data set [2] is Gallesekretion narkotisierter Ratten. The experiment in a line: Bile secretion (choleresis) of anaesthetised rats after intraduodenal administration. The class given is in vivo, Ratte. To be noted: for TQ [LD50/ED50]: LD50 (Maus, i.p.) / ED50 Gallesekretion (Ratte i.d.), for Lfd.Nr. 1 the cited p.o. LD50; for ED50: Rattus norvegicus, 0.5 h, Ratte i.d., dose that raises bile secretion (fluid volume, 30-min fraction) by maximally 50 %. An excerpt: In Tabelle II werden Untersuchungen der Gallesekretion (Cholerese) von narkotisierten Ratten nach intraduodenaler Applikation (ED50) und die letale Wirkung an der Maus (LD50) nach intraperitonealer Applikation von Vertretern der erfindungsgemäßen Verbindungen sowie der therapeutische Quotient (TQ = LD50/ED50) wiedergegeben.
(§1) Einfluß auf die Pankreas- und Gallesekretion der narkotisierten Ratte Versuchsdurchführung:
(§2) Männliche Sprague-Dawley-Ratten (250 - 300 ^g Körpergewicht) werden mit 1,2 g/kg Urethan i.m. narkotisiert. Dann wird die Bauchhöhle medial geöffnet, der Ductus choledochus kurz oberhalb seiner Mündung in das Duodenum sowie nahe der Leberpforte ligiert, beide Gangabschnitte werden leberwärts katheterisiert.
(§3) Da bei der Ratte alle Pankreaskanäle in den mittleren Abschnitt des Ductus choledochus munden,lassen sich auf diese Weise aus dem distalen (ligierten) Gangabschnitt das Pankreassekret und aus dem proximalen Teil des Ductus choledochus die Galle getrennt ableiten.
(§4) Die sezernierten Mengen an Pankreas- und Gallensaft werden in 30 min. Abständen während 2 Stunden vor bis 3 Stunden nach der intraduodenalen ([…]) Verabreichung der zu prüfenden Verbindungen (verabreichtes Flüssigkeitsvolumen 5 ml/kg) gemessen.
(§5) Die Körpertemperatur der Tiere wird mittels Heizkissen und Bestrahlung auf 36 - 38°C gehalten; die Temperaturkontrolle erfolgt rectal.
(§6) Auswertung: • Die Flüssigkeitsvolumina der 30-min.-Fraktionen nach der Substanzgabe werden jeweils auf die vor der Substanzapplikation ausgeschiedene Galle- bzw. Pankreassaftmenge (= 100 %, Mittelwert aus den beiden letzten Messungen) bezogen. Die maximale prozentuale Steigerung der Pankreas- bzw. Gallesekretion wird in Abhängigkeit von der Dosis dargestellt und daraus die ED50 durch Interpolation ermittelt.

Data set [3] has as its system Pankreassekretion narkotisierter Ratten. The experiment in a line: Pancreatic secretion of anaesthetised rats after intraduodenal administration. The class given is in vivo, Ratte. To be noted: for TQ [LD50/ED50]: LD50 (Maus, i.p.) / ED50 Pankreassekretion (Ratte, i.d.), for Lfd.Nr. 1 the cited p.o. LD50; for ED50: Rattus norvegicus, 0.5 h, Ratte, i.d., dose that raises pancreatic secretion (fluid volume, 30-min fraction) by maximally 50 %.
Description: In Tabelle I werden Untersuchungen der Pankreassekretion von narkotisierten Ratten nach intraduodenaler Applikation (ED50) und die letale Wirkung an der Maus (LD50) nach intraperitonealer Applikation von Vertretern der erfindungsgemäßen Verbindungen sowie der therapeutische Quotient (^TQ = LD50/ED50) wiedergegeben.
as §1, §2, §3, §4, §5, §6

The nature of data set [4]: Acute toxicity in mice, intraperitoneal. Format: in vivo. The settings on record: mouse, in vivo, ip; Maus, i.p.; female NMRI mice, 14 days observation; read-out: Toxizität LD50. An excerpt:
(§7) Die Toxizitätsuntersuchungen werden an weiblichen NMRI-Mäusen (Körpergewicht 22 - 26 g) durchgeführt. Die Tiere (5 Tiere pro Dosis) erhalten Futter und Wasser ad libitum. Verschiedene Dosierungen der Substanzen werden intraperitoneal verabreicht. Die Beobachtungsdauer beträgt 14 Tage. Die DL50, d.h. die Dosis, bei der 50 % der Tiere sterben, wird aus der Dosiswirkungskurve ermittelt.

The subject of data set [5] is Maus. Briefly: Acute toxicity in mice, intraperitoneal. Format: in vivo. To be noted: i.p., female NMRI mice, 14 days observation.
Description: as §7

SMILES strings stand for the structures.

A word on the ED50: it is the dose at which the effect has come halfway, by size or by number of responders. On to `CC(C)(C)CC(C)(C)N(CCCC(=O)O)C(=O)c1ccc(Cl)cc1` [Lfd. Nr. 7, N-p-Chlorbenzoyl-4-[(1.1.3.3-tetramethyl-butyl)-amino]-butter-säure], for which the “TQ [LD50/ED50]” value is < 3,6 in data set [1], 27 in data set [2] and 31 in data set [3] (listed as 1). Further, the ED50 in data set [1] is more than 300 mg/kg; in data set [2], 40 mg/kg; in data set [3] it was 35 mg/kg.
In the case of `C#CC1(N(CCCC(=O)O)C(=O)c2ccc(Cl)cc2)CCCCC1` [Beispiel 5], it took a dose of 6 mg/kg to reach the 50% effect level in data set [2] (intraduodenal) (ED50).
In general, LD50 refers to the dose at which mortality reaches 50%. For the molecule `O=C(O)CCCN(Cc1ccccc1)C(=O)c1ccc(Cl)cc1` [Lfd. Nr. 15, N-p-Chlorbenzoyl-4-benzylamino-buttersäure], in data set [4], the LD50 at 336 h was determined as 150 mg/kg. In addition, in data set [1], the “TQ [LD50/ED50]” value was 18,8 and the ED50 was determined as 8 mg/kg. In addition, in data set [3], the “TQ [LD50/ED50]” value is on record as 60 and the ED50 came to 2.5 mg/kg.
For the molecule `C#CC(C)(C)N(CCCC(=O)O)C(=O)c1ccc(Cl)cc1` [Lfd. Nr. 3, N-p-Chlorbenzoyl-4-[(2-methyl-3-butin-2-yl)-amino]-buttersäure], in data set [4], the LD50 at 336 h is more than 1000 mg/kg. In data set [3], the “TQ [LD50/ED50]” value is reported as “»100” and the ED50 was determined as 10 mg/kg.
Regarding `C#CC1(N(CCCC(=O)O)C(C)=O)CCCCC1` [Lfd. Nr. 8, N-Acetyl-4-[(1-ethinyl-cyclohexyl-1)-amino]-buttersäure], in data set [4], the LD50 at 336 h is 190 mg/kg. In data set [2], the “TQ [LD50/ED50]” value is recorded as 32 and it took a dose of 6 mg/kg to reach the 50% effect level (ED50).
As to `CC(C)(C)CC(C)(C)N(CCCC(=O)O)C(=O)c1ccc(F)cc1` [Beispiel 16], the “Toxizität LD50” value in data set [5] amounted to 400 mg/kg. In data set [3] (intraduodenal), the ED50 was approximately 10 mg/kg.
Take `O=C(O)CCCN(C(=O)c1ccc(Cl)cc1)C12CC3CC(CC(C3)C1)C2` [Lfd. Nr. 6, N-p-Chlorbenzoyl-4-(1-adamantyl)-aminobuttersäure]: in data set [4], the LD50 at 336 h amounted to 1100 mg/kg. In addition, the “TQ [LD50/ED50]” value in data set [1] is 110; in data set [2], 220; in data set [3] it was approximately 220. Moreover, the ED50 was 10 mg/kg in data set [1], 5 mg/kg in data set [2] and approximately 5 mg/kg in data set [3].
Regarding `O=C(O)CCCN(C(=O)c1ccc(Cl)cc1)C1CCCCCCC1` [Lfd. Nr. 18, N-p-Chlorbenzoyl-4-cyclooctylamino-buttersäure], in data set [4], the LD50 at 336 h was 350 mg/kg. In data set [3], the “TQ [LD50/ED50]” value is 233 and the ED50 stood at 1.5 mg/kg.
For `CCC(C)(C)N(CCCC(=O)O)C(=O)c1ccc(Cl)cc1Cl` [Lfd. Nr. 11, N-2,4-Dichlorbenzoyl-4-[(1.1-dimethyl-propyl)-amino]-butter-säure] the same measures were 200 mg/kg, 200 and 1 mg/kg.
As to `CC(C)(C)N(CCCC(=O)O)C(=O)c1ccc(Cl)cc1` [Lfd. Nr. 2, N-p-Chlorbenzoyl-4-(tert.-butylamino)-buttersäure], the LD50 at 336 h in data set [4] is more than 1000 mg/kg. Further, in data set [1], the “TQ [LD50/ED50]” value is reported as more than 10 and the ED50 worked out at 100 mg/kg. Moreover, in data set [2], the “TQ [LD50/ED50]” value was more than 40 and the 50% effect level (ED50) was put at a dose of 25 mg/kg.
In the case of `C#CC(CC)(CC)N(CCCC(=O)O)C(=O)c1ccc(Cl)cc1` [Lfd. Nr. 4, N-p-Chlorbenzoyl-4-[(3-ethyl-1-pentin-3-yl)-amino]-buttersäure], in data set [4], the LD50 at 336 h was 780 mg/kg. Further, the “TQ [LD50/ED50]” value in data set [1] was 7,8; in data set [2], 43; in data set [3], 156. Also, the ED50 in data set [1] was found to be 100 mg/kg; in data set [2], 18 mg/kg; in data set [3] it was 5 mg/kg.
